Test results as given in ChEMBL document CHEMBL3124797, “Copper complexes with phosphonium containing hydrazone ligand: topoisomerase inhibition and cytotoxicity study” (Eur J Med Chem, 2014).

What was measured:
A549 = experiment: Cytotoxicity against human A549 cells after 72 hrs by MTT assay; type: functional, cell-based; details: A549, 72 h
PC-3 = experiment: Cytotoxicity against human PC3 cells after 72 hrs by MTT assay; type: functional, cell-based; details: PC-3, 72 h
MRC5 [1] = experiment: Cytotoxicity against human MRC5 cells after 72 hrs by MTT assay; type: cell-based; details: MRC5, 72 h
MRC5 [2] = experiment: Selectivity index, ratio of IC50 for human MRC5 cells to IC50 for human PC3 cells; type: functional

Compound | IC50 (A549) [µM] | IC50 (PC-3) [µM] | IC50 (MRC5 [1]) [µM] | Ratio IC50 (MRC5 [2])
O.O=C(N/N=C/c1cc(C[P+](c2ccccc2)(c2ccccc2)c2ccccc2)ccc1O)c1ccccc1.[Cl-] | > 30 | 14.4 | 12.2 | 0.85
O=Cc1cc(C[P+](c2ccccc2)(c2ccccc2)c2ccccc2)ccc1O | > 30 | > 30 | > 30 | 
